Drawing on ChEMBL document CHEMBL3045662, “Synthesis of quinolactacide via an acyl migration reaction and dehydrogenation with manganese dioxide, and its insecticidal activities” (2006), this text covers mortality for one compound.

One assay concerns Spodoptera litura. Nature of the assay: Insecticidal activity against Spodoptera litura assessed as mortality at 500 ppm. The class given is functional, organism-based.
The next assay relates to Plutella xylostella. In words: Insecticidal activity against third-instar larvae of Plutella xylostella (diamondback moth) in six-leaf stage of cabbage plant assessed as mortality at 500 ppm sprayed over two excised leaf squares after 2 days. The format is functional. Conditions: 48 h.
For assay [1], the system named is Frankliniella occidentalis. Nature of the assay: Insecticidal activity against Frankliniella occidentalis (western flower thrips) assessed as mortality at 500 ppm. The class given is functional, organism-based.
For a further assay, the system named is Tetranychus urticae. In words: Insecticidal activity against Tetranychus urticae (two-spotted spider mite) in primary leaf stage of bean plant assessed as mortality at 500 ppm after 2 days. The class given is functional. To be noted: 48 h.
In the next assay the test system is Bemisia argentifolii. In words: Insecticidal activity against Bemisia argentifolii assessed as mortality at 500 ppm. The format is functional, organism-based.

The source made the active and inactive calls. The calls are words filed in the database; no cut-off is given here.

For the compound `O=C1c2c([nH]c3ccccc3c2=O)-c2cccn21` [QUINOLACTACIDE], the mortality entry (in the assay with Spodoptera litura; in assay [1]; in the assay with Bemisia argentifolii) was “inactive” each time. Also, the mortality (in general, the share of the test organisms that died) at 500 ppm with Plutella xylostella was 100%; in the assay with Tetranychus urticae it was 42%.
